These results are taken from patent US8846746B2, “Pyrazole compound and pharmaceutical use thereof” (Japan Tobacco Inc., priority 2011, dated 2014).

pIC50: −log10 of the molar value.

Chain of human SGLT1 (P13866 whole entry): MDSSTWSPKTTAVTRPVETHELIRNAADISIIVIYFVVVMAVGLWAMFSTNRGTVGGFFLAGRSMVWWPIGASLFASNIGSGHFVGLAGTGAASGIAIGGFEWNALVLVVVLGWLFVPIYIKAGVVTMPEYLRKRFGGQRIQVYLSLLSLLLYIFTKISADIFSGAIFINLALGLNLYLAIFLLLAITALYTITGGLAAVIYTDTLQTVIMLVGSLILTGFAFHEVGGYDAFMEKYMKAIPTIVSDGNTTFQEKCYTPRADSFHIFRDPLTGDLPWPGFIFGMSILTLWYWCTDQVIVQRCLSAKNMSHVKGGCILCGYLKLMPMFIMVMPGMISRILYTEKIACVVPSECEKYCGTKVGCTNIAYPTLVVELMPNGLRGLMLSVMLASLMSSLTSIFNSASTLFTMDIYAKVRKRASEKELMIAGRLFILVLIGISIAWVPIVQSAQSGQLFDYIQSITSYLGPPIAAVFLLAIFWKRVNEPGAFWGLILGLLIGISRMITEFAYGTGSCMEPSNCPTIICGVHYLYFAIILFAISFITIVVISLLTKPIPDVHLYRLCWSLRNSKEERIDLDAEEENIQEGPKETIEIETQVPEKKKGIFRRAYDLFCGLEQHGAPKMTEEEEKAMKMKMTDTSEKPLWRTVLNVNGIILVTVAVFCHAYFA

The first assay concerns the target human SGLT1 (Homo sapiens (Human), UniProt P13866). Nature of the assay: SGLT1 inhibitory activity: 14C-AMG uptake into CHO-K1 cell line stably expressing human SGLT1. The settings on record: 14C-AMG uptake, CHO-K1 cells expressing human SGLT1. Format: cell-based. Here is the method:
SGLT1 inhibitory activity of a test compound (IC50 value) was calculated based on an amount of intake into a cell of labeled α-methyl-D-glucopyranoside (^14C-AMG) which is transported by SGLT1.
1) Construction of Human SGLT1 Expression Plasmid
A DNA fragment containing human SGLT1, wherein NheI recognition and cleavage sequence was added upstream of a Kozac consensus sequence of the vector; and a stop codon (TAG) and a SalI recognition and cleavage sequence was added just downstream of a coding region of the human SGLT1, was amplified by PCR using pCMV6-hSGLT1 (OriGene) as a template. The purified DNA fragment was cleaved by restriction enzymes NheI and SalI, and the obtained fragment was ligated into pcDNA3.1 (+) which was cleaved by NheI and XhoI to construct human SGLT1 expression plasmid.
2) Establishment of Stable Cell Lines Expressing Human SGLT1
A human SGLT1 expression plasmid pcDNA-hSGLT1 was transfected into CHO-K1 cells by Lipofectamine-2000 (Invitrogen). The cells were cultured in the presence of G418 (Nakalai tesque) and drug-resistant cells were selected. A cell line having the highest S/B ratio of an amount of ^14C-AMG uptake per cell treated by solvent to an amount of ^14C-AMG uptake per cell treated by phlorizin (SGLT inhibitor) was selected from the drug-resistant cells as a stable cell lines expressing human SGLT1.
3) Evaluation of SGLT1 Inhibitory Activity
The stable cell line expressing human SGLT1 was seeded at 5×10^4 cells/well on BioCoat™ Poly-D-Lysine 96 well plate with Lid (Becton Dickinson and Company) and cultured at 37° C. under 5% CO2 overnight. The medium was replaced with 100 μL/well of a Na (−) buffer (140 mM choline chloride, 2 mM KCl, 1 mM MgCl2, 1 mM CaCl2, 10 mM HEPES, 5 mM Tris, pH7.4) followed by incubation for 20 minutes at 37° C. under 5% CO2. After removing the Na (−) buffer, a test compound solution which was prepared from Na (+) buffer (140 mM NaCl, 2 mM KCl, 1 mM MgCl2, 1 mM CaCl2, 10 mM HEPES, 5 mM Tris, pH7.4) containing BSA was added thereto at 40 μL/well. In addition, Na (+) buffer containing 8 kBq of ^14C-AMG and 2 mM AMG was added thereto at 40 μL/well, and was mixed well. Na (−) buffer containing BSA was added to a blank well at 40 μL/well and additionally adding a Na (+) buffer containing 8 kBq of ^14C-AMG and 2 mM AMG, and was mixed well. Cells were incubated for 1 hour at 37° C. under 5% CO2. After the reaction, the cells were washed twice with 100 μL/well of iced wash buffer (100 mM AMG, 140 mM choline chloride, 2 mM KCl, 1 mM MgCl2, 1 mM CaCl2, 10 mM HEPES, 5 mM Tris, pH7.4), then lysed in 50 μL/well of a 0.2N aqueous solution of NaOH. The cell lysate was transferred to OptiPlate96 (Perkin-Elmer) and 100 μL/well of MicroScint-40 (Perkin-Elmer) was dispensed. The radioactivity was counted by TOPCOUNT NXT (Perkin-Elmer).
A data was obtained by deducting the average value (CPM) of blank wells from the average value (CPM) of each treated well. The inhibition ratio (%) was calculated by the following formula: inhibition rate (%)=[(A−B)/A]×100, where A is a data of the solvent control, and B is a data of a test compound.
`CCCc1cccc(-c2cc(NC(=O)C3COC(=O)C3)nn2-c2ccccc2)c1` (racemic) [Example 7, 5-oxotetrahydrofuran-3-carboxylic acid[1-phenyl-5-(3-propylphenyl)-1H-pyrazol-3-yl]amide]: the pIC50 – broadly, the IC50 on a negative log10 scale, so that one unit is a factor of ten – is 7.48. In turn, `O=C1CC(C(=O)Nc2cc(-c3ccccc3)n(-c3ccccc3)n2)CN1` (racemic) [Example 9] had a negative-log IC50 (pIC50) of 5.80. Same read-out and setting: then `O=C1CCC(C(=O)Nc2cc(-c3ccccc3)n(-c3ccccc3)n2)CN1` (racemic) [Example 10], with 5.26. Turning to `CCCc1cccc(-c2cc(NC(=O)C3CNC(=O)C3)nn2-c2ccccc2)c1` (racemic) [Example 11], the negative-log IC50 (pIC50) is 8.34. Same read-out and setting: then `CCCn1nc(NC(=O)C2CNC(=O)C2)cc1-c1ccccc1` (racemic) [Example 12], with 5.36.

For the molecule `CCCCCCn1nc(NC(=O)C2CNC(=O)C2)cc1-c1ccccc1` (racemic) [Example 13], the pIC50 was 6.60.

The molecule `CCCc1cccc(-c2cc(NC(=O)C3CNC(=O)C3)nn2C(C)C)c1` (racemic) [Example 17] gave a pIC50 of 7.18.

On to `CCCc1cccc(-c2cc(NC(=O)C3CNC(=O)C3)nn2CC(C)C)c1` (racemic) [Example 18], for which the pIC50 is 7.51.

Consider `CCCc1cccc(-c2cc(NC(=O)C3(C)CNC(=O)C3)nn2-c2ccccc2)c1` (racemic) [Example 21], for which the pIC50 was 6.17. Still for that read-out and setting: the value for `CCCc1cccc(-c2cc(NC(=O)C3CNC(=O)C3)nn2CC)c1` (racemic) [Example 24] was 6.89; that for `CCCc1cccc(-c2cc(NC(=O)C3CNC(=O)C3)nn2C2CCCCC2)c1` (racemic) [Example 32] was 7.92. Consider `CCCc1cccc(-c2cc(NC(=O)C3CNC(=O)C3)nn2C(C)(C)C)c1` (racemic) [Example 42], for which the negative logarithm of the IC50 (pIC50) is 6.72. The molecule `CCCc1cccc(-c2cc(NC(=O)C3CNC(=O)C3CC)nn2-c2ccccc2)c1` (racemic) [Example 60] had a negative logarithm of the IC50 (pIC50) of 7.77. This pIC50 is 1.05 log units higher than that of the molecule before. The same measure, in the same setting: the value for `CCCc1cccc(-c2cc(NC(=O)C3CNC(=O)C3CCO)nn2-c2ccccc2)c1` (racemic) [Example 115] was 7.39; that for `CCCc1cccc(-c2cc(NC(=O)C3CC(=O)NC3C)nn2-c2ccccc2)c1` (single isomer, unassigned) [Example 19] was 7.48. In the case of `CCCc1cccc(-c2cc(NC(=O)C3CC(=O)NC3C)nn2-c2ccccc2)c1` (single isomer, unassigned) [Example 20], the pIC50 is 6.82. `CC1(C)CCCC(c2cc(NC(=O)[C@H]3CNC(=O)C3)nn2-c2ccccc2)C1` (single isomer, unassigned) [Example 88] showed a negative-log IC50 (pIC50) of 7.77. Same read-out and setting: then `CC1(C)CCCC(c2cc(NC(=O)[C@H]3CNC(=O)C3)nn2-c2ccccc2)C1` (single isomer, unassigned) [Example 89], with 6.85; and `O=C1CCC(C(=O)Nc2cc(-c3cccc(OC(F)(F)F)c3)n(-c3ccccc3)n2)CN1` (single isomer, unassigned) [Example 150], with 8.11. For `CCC(F)(F)c1cccc(-c2cc(NC(=O)C3CCC(=O)NC3)nn2-c2ccccc2)c1` (single isomer, unassigned) [Example 151], the pIC50 is 7.72. The same measure, in the same setting: then `O=C1CCC(C(=O)Nc2cc(-c3cccc(OC(F)(F)F)c3)n(-c3ccc(F)cc3)n2)CN1` (single isomer, unassigned) [Example 165], with 7.66; and `O=C1CCC(C(=O)Nc2cc(-c3cccc(OC(F)(F)F)c3)n(-c3ccccc3F)n2)CN1` (single isomer, unassigned) [Example 167], with 7.82; and `O=C1CCC(C(=O)Nc2cc(-c3cccc(OC(F)(F)F)c3)n(-c3cccc(F)c3)n2)CN1` (single isomer, unassigned) [Example 168], with 7.44. The molecule `CCC(F)(F)c1cccc(-c2cc(NC(=O)C3CCC(=O)NC3)nn2-c2cccc(F)c2)c1` (single isomer, unassigned) [Example 171] gave a pIC50 of 8.08. The same measure, in the same setting: the value for `CCC(F)(F)c1cccc(-c2cc(NC(=O)C3CCC(=O)NC3)nn2C2CCOCC2)c1` (single isomer, unassigned) [Example 185] was 7.18.

For the molecule `CC(C)(C)c1cccc(-c2cc(NC(=O)C3CCC(=O)NC3)nn2C2CCOCC2)c1` (single isomer, unassigned) [Example 186], the negative-log IC50 (pIC50) was 7.12.

Consider `O=C1CCC(C(=O)Nc2cc(-c3cccc(OC(F)(F)F)c3)n(C3CCOCC3)n2)CN1` (single isomer, unassigned) [Example 189], for which the pIC50 was 6.70.

Still in this assay, the particulars now being: 14C-AMG uptake, CHO-K1 cells stably expressing human SGLT1.
In turn, `CCCc1cccc(-c2cc(NC(=O)C3CCS(=O)(=O)C3)nn2-c2ccccc2)c1` (racemic) [Example 320] had a pIC50 of 8.52. In turn, `O=C(Nc1cc(-c2cccc(COCC(F)(F)F)c2)n(-c2ccccc2)n1)C1CNC(=O)C12CC2` (single isomer, unassigned) [Example 250, 4-oxo-5-azabispiro[2.4]heptane-7-carboxylic acid{1-phenyl-5-[3-(2,2,2-trifluoroethoxymethyl)phenyl]-1H-pyrazol-3-yl}amide] gave a negative logarithm of the IC50 (pIC50) of 8.47. The pIC50 values of the last two molecules are within 0.2 log units of each other. `CCCc1cccc(-c2cc(NC(=O)C3CNC(=O)C3CC)nn2-c2ccccc2)c1` (single isomer, unassigned) [Example 307] had a negative logarithm of the IC50 (pIC50) of 8.22. Against the preceding molecule, the pIC50 is 0.25 log units lower.

The molecule `CCC1C(=O)NCC1C(=O)Nc1cc(-c2cccc(OC(F)(F)F)c2)n(-c2ccccc2)n1` (single isomer, unassigned) [Example 308] showed a pIC50 of 7.80. On the same count and under the same terms, then `CCCc1cccc(-c2cc(NC(=O)C3CNC(=O)C3CC)nn2-c2ccccc2)c1` (single isomer, unassigned) [Example 309], with 7.31; and `CC(C)(C)COCc1cccc(-c2cc(NC(=O)C3CCC(=O)NC3)nn2-c2ccccc2)c1` (single isomer, unassigned) [Example 333], with 7.70. The same measure, in the same setting: then `CC(C)(C)OCc1cccc(-c2cc(NC(=O)C3CCC(=O)NC3)nn2-c2ccccc2)c1` (single isomer, unassigned) [Example 336], with 7.60. The same measure, in the same setting: then `O=C1CCC(C(=O)Nc2cc(-c3cccc(COCCC(F)(F)F)c3)n(-c3ccccc3)n2)CN1` (single isomer, unassigned) [Example 338], with 7.77; and `CC(C)(C)CCOc1cccc(-c2cc(NC(=O)C3CCC(=O)NC3)nn2-c2ccccc2)c1` (single isomer, unassigned) [Example 342], with 7.35; and `CCCc1cccc(-c2cc(NC(=O)C3CNC(=O)C34CC4)nn2-c2ccccc2)c1` (single isomer, unassigned) [Example 360], with 8.82. With `CCCc1cccc(-c2cc(NC(=O)C3CC(=O)NC3C)nn2-c2ccccc2)c1` (single isomer, unassigned) [Example 404], the pIC50 is 7.74.

Staying with this assay, now noted: CHO-K1, at 0.1 uM.
`CC1C(=O)NC(O)C1C(=O)Nc1cc(-c2cccc(OC(F)(F)F)c2)n(-c2ccc(F)cc2)n1` (racemic) [Example 259]: the inhibition (commonly the drop in the measured response relative to a control, in per cent) at 0.1 µM amounted to 20%.

In turn, `CCCc1cccc(-c2cc(NC(=O)C3CNC(=O)C(C)C3)nn2-c2ccccc2)c1` (racemic) [Example 292] yielded an inhibition at 0.1 µM of 43%.

The same assay, now with this note: CHO-K1, at 0.3 uM.
On to `CC1C(=O)NC(O)C1C(=O)Nc1cc(-c2cccc(OC(F)(F)F)c2)n(-c2ccccc2)n1` (racemic) [Example 254], for which the inhibition at 0.3 µM amounted to 49%.

The assay is the same for the next values; noted with them: at 0.1 uM.
Turning to `CCCc1cccc(-c2cc(NC(=O)C3CNC(=O)C(C)C3)nn2-c2ccccc2)c1` (racemic) [Example 293], the “human SGLT1 % Inhibition” value is 27%.
